Assay results: the supplement of paper PMC10307832

Key:
Assay in all cases: relative viability (nuclei count vs DMSO), 5 days (fraction); higher = more cells survive
Tivozanib = compound: COc1cc2nccc(Oc3ccc(NC(=O)Nc4cc(C)on4)c(Cl)c3)c2cc1OC [Tivozanib]
In short: (§1)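 Five library-drug doses, separated by factors of √10, were pinned into 1536-well plates holding lung cancer cell lines after an overnight stay at 37 °C. Cells were fixed, permeabilised and Hoechst-stained in one step after 5 days without medium change, then imaged at 4×. Viability compares treated-well with vehicle-well nuclei, counted in MetaXpress, as a median across plates. Passing plates had control CV below 25% and at least one doubling.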

Cytarabine = compound: Nc1ccn([C@@H]2O[C@H](CO)[C@@H](O)[C@@H]2O)c(=O)n1 [Cytarabine]
In short: as §1

Pimozide = compound: O=c1[nH]c2ccccc2n1C1CCN(CCCC(c2ccc(F)cc2)c2ccc(F)cc2)CC1 [Pimozide]
In short: as §1

CPI-613 = compound: O=C(O)CCCCC(CCSCc1ccccc1)SCc1ccccc1 [CPI-613]
In short: as §1

[1] = compound: Cc1cnc(-c2cnc(NCCNc3ccc(C#N)cn3)nc2-c2ccc(Cl)cc2Cl)[nH]1
In short: as §1

JQ1 = compound: Cc1sc2c(c1C)C(c1ccc(Cl)cc1)=N[C@@H](CC(=O)OC(C)(C)C)c1nnc(C)n1-2 [JQ1]
In short: as §1

Docetaxel = compound: CC(=O)O[C@@]12CO[C@@H]1C[C@H](O)[C@@]1(C)C(=O)[C@H](O)C3=C(C)[C@@H](OC(=O)[C@H](O)[C@@H](NC(=O)OC(C)(C)C)c4ccccc4)C[C@@](O)([C@@H](OC(=O)c4ccccc4)[C@H]21)C3(C)C [Docetaxel]
In short: as §1

Row | Cell Line | relative viability (Tivozanib; 0.005 µM) | relative viability (Tivozanib; 0.01581 µM) | relative viability (Tivozanib; 0.05 µM) | relative viability (Tivozanib; 0.5 µM) | relative viability (Cytarabine; 0.005 µM) | relative viability (Cytarabine; 0.01581 µM) | relative viability (Cytarabine; 0.05 µM) | relative viability (Cytarabine; 0.1581 µM) | relative viability (Cytarabine; 0.5 µM) | relative viability (Pimozide; 0.08 µM) | relative viability (Pimozide; 0.253 µM) | relative viability (Pimozide; 0.8 µM) | relative viability (Pimozide; 2.53 µM) | relative viability (Pimozide; 8 µM) | relative viability (CPI-613; 5 µM) | relative viability (CPI-613; 15.81 µM) | relative viability (CPI-613; 50 µM) | relative viability (CPI-613; 158.11 µM) | relative viability (CPI-613; 500 µM) | relative viability ([1]; 0.08 µM) | relative viability ([1]; 0.253 µM) | relative viability ([1]; 0.8 µM) | relative viability ([1]; 2.53 µM) | relative viability (JQ1; 0.04 µM) | relative viability (JQ1; 0.1265 µM) | relative viability (JQ1; 0.4 µM) | relative viability (JQ1; 1.265 µM) | relative viability (JQ1; 4 µM) | relative viability (Docetaxel; 0.0002 µM) | relative viability (Docetaxel; 0.000632 µM) | relative viability (Docetaxel; 0.002 µM) | relative viability (Docetaxel; 0.006325 µM) | relative viability (Docetaxel; 0.02 µM) | relative viability (Tivozanib; 0.1581 µM)
1 | NCI-H2342 | 0.88 | 0.948 | 0.886 | 0.987 | 0.909 | 0.878 | 0.793 | 0.744 | 0.608 | 1.01 | 0.876 | 0.912 | 0.863 | 0.995 | 0.929 | 1.01 | 1.07 | 0.97 | 1.07 | 1.13 | 0.794 | 0.952 | 0.903 | 1.17 | 0.775 | 0.993 | 0.943 | 0.756 | 1.04 | 0.818 | 0.692 | 0.619 | 0.484 | –
2 | NCI-H2347 | 0.95 | 0.997 | 1.17 | 1 | 1.07 | 0.914 | 0.825 | 0.658 | 0.661 | 0.911 | 0.957 | 0.828 | 0.962 | 0.986 | 1.03 | 0.866 | 0.96 | 0.776 | 0.844 | 1.08 | 0.894 | 0.958 | 1.09 | 0.992 | 0.771 | 0.886 | 0.709 | 0.518 | 0.973 | 0.952 | 0.726 | 0.52 | 0.459 | 0.939
3 | NCI-H2405 | 0.933 | 1.02 | 1.04 | 0.772 | 0.927 | 0.712 | 0.57 | 0.512 | 0.384 | 0.964 | 0.937 | 1.03 | 0.992 | 0.96 | 0.996 | 0.909 | 0.939 | 0.931 | 0.78 | 1.01 | 0.938 | 0.948 | 0.736 | 1.03 | 0.598 | 0.921 | 0.711 | 0.499 | 0.982 | 0.879 | 0.633 | 0.453 | 0.339 | 0.89
4 | NCI-H3122 | 0.961 | 1.03 | 1.01 | 1.02 | 0.99 | 0.928 | 0.971 | 0.553 | 0.399 | 0.983 | 1.02 | 0.948 | 0.962 | 1.03 | 0.969 | 1.01 | 1.02 | 0.956 | 0.146 | 0.962 | – | 0.988 | 0.965 | 0.962 | 0.791 | 0.96 | 0.857 | 0.518 | 0.981 | 0.839 | 0.731 | 0.184 | 0.12 | 1.12
5 | PC-3 [JPC-3] | 1.03 | 1.05 | 1.06 | 0.912 | 0.945 | 0.971 | 0.773 | 0.618 | 0.631 | – | 0.984 | 0.945 | 1.01 | 0.894 | 1.01 | 0.952 | 1.01 | 0.789 | 0.358 | 1 | 0.909 | 1.04 | 1.03 | 0.999 | 0.997 | 0.762 | 0.675 | 0.606 | 0.98 | 1.01 | 0.585 | 0.344 | 0.188 | 1.05
6 | PC-14 | 0.924 | 1.05 | 1.06 | 0.927 | 0.881 | 0.922 | 0.565 | 0.174 | 0.127 | – | 0.965 | 0.851 | 0.915 | 0.987 | 0.956 | 0.9 | 0.941 | 0.685 | 0.595 | 1.07 | 0.861 | 1.04 | 0.867 | 0.971 | 0.684 | 0.652 | 0.333 | 0.22 | 0.941 | 0.742 | 0.209 | 0.081 | 0.0432 | 1.03
7 | RERF-LC-KJ | 0.951 | 0.939 | 1.06 | 0.969 | 0.869 | 0.907 | 0.77 | 0.567 | 0.435 | 0.959 | 0.887 | 0.867 | 0.869 | 0.792 | 0.978 | 0.883 | 1.02 | 0.891 | 0.865 | 1.1 | 0.906 | 0.89 | 1 | 0.985 | 1.01 | 0.967 | 0.624 | 0.423 | 0.94 | 0.79 | 0.335 | 0.218 | 0.173 | 0.935
8 | SK-LU-1 | 1 | 1.02 | 1.12 | 1.05 | 0.853 | 0.868 | 0.776 | 0.433 | 0.322 | 1.02 | 1.03 | 0.986 | 0.876 | 0.858 | 1.04 | 0.911 | 0.995 | 0.668 | 0.473 | 1.12 | 0.967 | 1.06 | 1.14 | 1 | 0.91 | 0.91 | 0.377 | 0.238 | 0.843 | 0.64 | 0.425 | 0.329 | 0.255 | 0.928
9 | SK-MES-1 | 0.997 | 0.993 | 1.02 | 0.959 | 0.875 | 0.712 | 0.355 | 0.258 | 0.221 | 0.942 | 0.998 | 0.979 | 1.01 | 0.985 | 0.967 | 0.904 | 0.98 | 0.531 | 0.477 | 1.09 | 0.947 | 1.02 | 1.1 | 0.937 | 0.717 | 0.603 | 0.311 | 0.25 | 1 | 0.872 | 0.418 | 0.267 | 0.172 | 1
10 | SW 900 | 0.894 | 0.855 | 0.844 | 0.791 | 0.725 | 0.674 | 0.564 | 0.26 | 0.204 | 0.916 | 0.84 | 0.468 | 0.811 | 0.742 | 0.837 | 0.642 | 1.02 | 0.601 | 0.0301 | 0.902 | 0.803 | 0.759 | 0.729 | 0.87 | 0.766 | 0.557 | 0.26 | 0.209 | 0.69 | 0.422 | 0.292 | 0.232 | 0.174 | 0.4
11 | SW 1573 | 0.969 | 0.914 | 1.01 | 0.829 | 0.969 | 0.87 | 0.725 | 0.38 | 0.157 | 0.923 | 1.02 | 0.945 | 0.82 | 0.637 | 0.917 | 0.851 | 0.958 | 0.482 | 0.314 | 1.1 | 0.999 | 0.997 | 0.6 | 0.869 | 0.791 | 0.637 | 0.365 | 0.345 | 0.872 | 0.485 | 0.252 | 0.205 | 0.152 | 0.903
12 | UMC-11 | 0.944 | 0.954 | 0.965 | 0.927 | 0.75 | 0.554 | 0.551 | 0.316 | 0.264 | 1.01 | 0.983 | 0.961 | 0.976 | 1.07 | 0.945 | 0.924 | 0.911 | 0.474 | 0.133 | 0.943 | 0.787 | 0.929 | 1.02 | 0.926 | 0.742 | 0.43 | 0.29 | 0.26 | 0.912 | 0.944 | 0.456 | 0.279 | 0.187 | –
